From paper PMC7646624 (European journal of medicinal chemistry, 2020) come the findings set out here.

“Also recorded” adds a separate entry of the source. A value given as a limit tells only on which side of the number the result lay.

One experiment deals with H3K79 methylation. As to the kind of experiment: Western blot analysis of H3K79 methylation in MLL-AF9 cells. A general note: A western blot detects proteins with antibodies after separation by electrophoresis.
Experiment [1] deals with T1, GST-DOT1L (Homo sapiens, UniProt Q8TEK3). As to the kind of experiment: Saturation transfer difference. The experiment is classed as binding. Conditions: SAH added in five-fold molar excess.
In experiment [2] the test system is H3K4, H3K27, H3K36, H4K20 methylation. As to the kind of experiment: Western blot analysis of other histone methylation marks in MLL-AF9 cells.
Experiment [3] has as its target T1, GST-DOT1L. As to the kind of experiment: In vitro radio-isotope labeling DOT1L histone methyltransferase. As to conditions: ratio of IC50 values, initial radio-isotope assays.
The target in a further experiment is PRMT1 (Homo sapiens, UniProt Q99873). Kind of experiment: Methyltransferase profiling. The experiment is classed as biochemical.
The target in the next experiment is PRMT6 (Homo sapiens, UniProt Q96LA8). Kind of experiment: Methyltransferase profiling. Format: biochemical.
The target in the next experiment is PRMT5-MEP50 complex (Homo sapiens, UniProt O14744). Kind of experiment: Methyltransferase profiling. The experiment is classed as biochemical.
Another experiment addresses T2, PRMT4 (Homo sapiens, UniProt Q86X55).
T2 sequence (Q86X55 1-608): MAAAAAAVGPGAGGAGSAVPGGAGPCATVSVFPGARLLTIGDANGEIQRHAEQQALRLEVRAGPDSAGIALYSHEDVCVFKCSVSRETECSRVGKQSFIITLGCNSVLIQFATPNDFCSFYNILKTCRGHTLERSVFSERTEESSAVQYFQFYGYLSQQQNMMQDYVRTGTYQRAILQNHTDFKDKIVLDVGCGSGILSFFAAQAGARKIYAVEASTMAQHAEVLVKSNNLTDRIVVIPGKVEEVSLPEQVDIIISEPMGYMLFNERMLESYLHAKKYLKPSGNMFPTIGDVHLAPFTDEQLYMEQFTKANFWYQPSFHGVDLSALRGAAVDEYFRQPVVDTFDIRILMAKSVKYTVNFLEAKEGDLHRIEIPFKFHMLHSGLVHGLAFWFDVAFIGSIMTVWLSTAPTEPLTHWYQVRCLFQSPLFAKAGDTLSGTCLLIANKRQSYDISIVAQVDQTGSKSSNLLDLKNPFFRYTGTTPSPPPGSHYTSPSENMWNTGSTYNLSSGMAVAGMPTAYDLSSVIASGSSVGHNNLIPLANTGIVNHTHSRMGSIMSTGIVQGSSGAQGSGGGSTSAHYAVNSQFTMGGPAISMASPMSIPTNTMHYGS
As to the kind of experiment: Methyltransferase profiling. Format: biochemical.

The target of a further experiment is SUV39H2 (Homo sapiens, UniProt Q9H5I1). Kind of experiment: Methyltransferase profiling. Format: biochemical.
Experiment [4] has as its system panel of Methyltransferases. Kind of experiment: Methyltransferase profiling. The experiment is classed as biochemical. As to conditions: omitted from Table 2.
For the next experiment, the target named is PRMT3 (Homo sapiens, UniProt O60678). Kind of experiment: biochemical.
Another experiment concerns the target PRMT5 Alone (Homo sapiens, UniProt O14744). As to the kind of experiment: biochemical.
Another experiment deals with E2A-HLF cells. As to conditions: DOT1L-independent negative control line.
In experiment [5] the test system is MLL-AF9 transformed cells. As to conditions: various doses.
Experiment [6] relates to MLL-AF9 transformed cells.

PRMT1, sequence (Q99873 whole entry): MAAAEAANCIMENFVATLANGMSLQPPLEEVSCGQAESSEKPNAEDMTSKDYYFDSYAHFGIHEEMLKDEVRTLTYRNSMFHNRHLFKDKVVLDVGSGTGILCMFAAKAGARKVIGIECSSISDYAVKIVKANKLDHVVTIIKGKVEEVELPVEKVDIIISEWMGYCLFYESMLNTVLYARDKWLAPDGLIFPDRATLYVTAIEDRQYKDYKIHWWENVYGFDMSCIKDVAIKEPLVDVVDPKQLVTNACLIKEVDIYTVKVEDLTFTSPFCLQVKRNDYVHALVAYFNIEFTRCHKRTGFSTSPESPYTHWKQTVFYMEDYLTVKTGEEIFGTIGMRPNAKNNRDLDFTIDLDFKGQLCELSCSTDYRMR
PRMT3, sequence (O60678 whole entry): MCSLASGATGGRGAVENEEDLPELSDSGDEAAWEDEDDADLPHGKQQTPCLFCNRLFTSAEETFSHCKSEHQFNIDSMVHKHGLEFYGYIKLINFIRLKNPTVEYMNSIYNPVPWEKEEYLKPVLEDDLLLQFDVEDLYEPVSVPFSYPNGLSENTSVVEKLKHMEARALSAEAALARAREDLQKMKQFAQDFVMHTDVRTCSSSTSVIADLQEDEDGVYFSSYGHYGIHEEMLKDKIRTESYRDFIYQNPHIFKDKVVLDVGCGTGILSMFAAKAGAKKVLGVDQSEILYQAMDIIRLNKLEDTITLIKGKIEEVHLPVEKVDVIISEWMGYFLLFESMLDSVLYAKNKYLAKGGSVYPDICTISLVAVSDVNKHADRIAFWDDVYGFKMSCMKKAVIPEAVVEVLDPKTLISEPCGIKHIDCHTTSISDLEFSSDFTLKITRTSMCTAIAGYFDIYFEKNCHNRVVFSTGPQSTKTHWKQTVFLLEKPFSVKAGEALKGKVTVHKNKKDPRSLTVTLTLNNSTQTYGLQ
SUV39H2, sequence (Q9H5I1 whole entry): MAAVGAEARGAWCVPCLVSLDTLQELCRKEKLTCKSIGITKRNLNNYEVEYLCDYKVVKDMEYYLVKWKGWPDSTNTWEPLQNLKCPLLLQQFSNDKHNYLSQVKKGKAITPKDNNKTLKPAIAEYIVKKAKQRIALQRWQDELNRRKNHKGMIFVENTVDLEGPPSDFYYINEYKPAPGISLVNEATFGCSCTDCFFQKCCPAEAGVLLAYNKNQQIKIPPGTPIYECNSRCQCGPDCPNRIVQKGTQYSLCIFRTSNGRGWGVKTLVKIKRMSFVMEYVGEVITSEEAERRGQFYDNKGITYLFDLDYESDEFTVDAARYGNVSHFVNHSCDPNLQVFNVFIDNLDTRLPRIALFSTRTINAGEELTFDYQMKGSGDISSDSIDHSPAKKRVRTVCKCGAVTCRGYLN
PRMT5-MEP50 complex, sequence (O14744 whole entry): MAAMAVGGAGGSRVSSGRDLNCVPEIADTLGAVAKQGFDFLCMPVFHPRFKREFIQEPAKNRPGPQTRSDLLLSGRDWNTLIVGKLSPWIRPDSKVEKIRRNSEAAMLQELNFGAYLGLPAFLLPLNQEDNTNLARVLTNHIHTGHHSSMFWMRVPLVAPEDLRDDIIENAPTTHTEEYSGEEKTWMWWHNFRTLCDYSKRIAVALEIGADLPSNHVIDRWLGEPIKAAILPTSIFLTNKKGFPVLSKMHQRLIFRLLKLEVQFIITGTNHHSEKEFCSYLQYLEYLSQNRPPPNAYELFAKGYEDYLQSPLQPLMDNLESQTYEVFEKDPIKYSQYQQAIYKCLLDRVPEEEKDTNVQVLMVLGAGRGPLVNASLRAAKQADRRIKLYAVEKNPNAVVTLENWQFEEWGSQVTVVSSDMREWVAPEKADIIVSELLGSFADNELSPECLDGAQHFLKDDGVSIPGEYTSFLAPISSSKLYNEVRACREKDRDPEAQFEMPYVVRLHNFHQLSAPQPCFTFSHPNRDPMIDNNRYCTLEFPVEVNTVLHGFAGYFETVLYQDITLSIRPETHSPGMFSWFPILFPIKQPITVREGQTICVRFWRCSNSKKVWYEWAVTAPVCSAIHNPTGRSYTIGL
PRMT5-MEP50 complex, sequence (Q9BQA1 whole entry partner): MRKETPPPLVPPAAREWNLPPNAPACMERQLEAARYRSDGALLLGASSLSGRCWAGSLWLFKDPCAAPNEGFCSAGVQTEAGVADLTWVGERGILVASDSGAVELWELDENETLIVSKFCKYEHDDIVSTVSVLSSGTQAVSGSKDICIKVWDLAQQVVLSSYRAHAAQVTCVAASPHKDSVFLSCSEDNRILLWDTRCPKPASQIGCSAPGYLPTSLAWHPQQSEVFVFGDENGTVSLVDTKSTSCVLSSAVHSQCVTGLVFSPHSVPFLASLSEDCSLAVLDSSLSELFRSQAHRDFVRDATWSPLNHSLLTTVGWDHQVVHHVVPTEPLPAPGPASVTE
PRMT6, sequence (Q96LA8 whole entry): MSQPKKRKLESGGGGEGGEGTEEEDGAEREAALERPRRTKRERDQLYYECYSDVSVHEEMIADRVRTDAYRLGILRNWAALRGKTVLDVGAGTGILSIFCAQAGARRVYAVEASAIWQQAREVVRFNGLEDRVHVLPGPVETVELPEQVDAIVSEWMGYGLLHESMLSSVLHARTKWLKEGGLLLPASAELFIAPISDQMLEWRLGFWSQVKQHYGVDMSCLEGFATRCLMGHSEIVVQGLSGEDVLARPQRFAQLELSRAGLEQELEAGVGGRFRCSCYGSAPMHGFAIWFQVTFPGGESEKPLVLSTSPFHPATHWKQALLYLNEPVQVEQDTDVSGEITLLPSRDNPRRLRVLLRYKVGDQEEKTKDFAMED
PRMT5 Alone, sequence (O14744 whole entry): as the sequence (O14744 whole entry) above
T1 sequence (Q8TEK3 1-420): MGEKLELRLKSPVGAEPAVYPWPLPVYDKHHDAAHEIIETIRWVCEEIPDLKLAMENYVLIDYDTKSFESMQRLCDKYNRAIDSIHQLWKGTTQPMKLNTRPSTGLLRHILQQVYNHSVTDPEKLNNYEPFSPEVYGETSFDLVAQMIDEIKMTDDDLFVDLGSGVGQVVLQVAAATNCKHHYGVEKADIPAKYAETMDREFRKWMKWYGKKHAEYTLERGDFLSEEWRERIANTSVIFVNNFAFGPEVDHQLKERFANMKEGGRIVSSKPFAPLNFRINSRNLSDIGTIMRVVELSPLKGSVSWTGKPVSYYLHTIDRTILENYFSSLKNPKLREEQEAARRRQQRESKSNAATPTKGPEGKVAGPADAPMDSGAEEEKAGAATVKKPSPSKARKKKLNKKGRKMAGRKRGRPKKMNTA

`Nc1ncnc2c1ncn2[C@@H]1O[C@H](CNCc2ccc(OCC(=O)Nc3ccccn3)cc2)[C@@H](O)[C@H]1O` [Compound 2]: in the experiment on H3K79 methylation (time course of 3, 6 and 9 days), the “cellular H3K79 methylation” value is reported as “inhibits cellular H3K79 dimethylation; also recorded: reduced”. Further, at GST-DOT1L [1], the “competitive STD NMR with SAH” value is on record as “competed off by SAH”. The “H3K4, H3K27, and H3K36 trimethylation states” value in experiment [2] was “not changed”.

For `Cc1ccc(NC(=O)c2ncn(CC(=O)NCc3ccc4c(c3)OCO4)n2)cc1C` [Compound 9, 1-(2-((benzo[d][1,3]dioxol-5-ylmethyl)amino)-2-oxoethyl)-N-(3,4-dimethylphenyl)-1H-1,2,4-triazole-3-carboxamide], on GST-DOT1L [3], the “fold better activity than 8” value was determined as 1.5 fold.

Turning to `Cc1ccc(NC(=O)c2ncn(CC(=O)NCc3ccc4c(N)nccc4c3)n2)cc1C` [Compound 19, 1-(2-(((1-aminoisoquinolin-6-yl)methyl)amino)-2-oxoethyl)-N-(3,4-dimethylphenyl)-1H-1,2,4-triazole-3-carboxamide], the IC50 at PRMT1, at PRMT6, against PRMT5-MEP50 complex and against PRMT4 was over 250 µM in each case.

In the case of `Cc1ccc(NC(=O)c2ncn(CC(=O)NCCn3ccc4c(N)ncnc43)n2)cc1C` [Compound 20, 1-(2-((2-(4-amino-7H-pyrrolo[2,3-d]pyrimidin-7-yl)ethyl)amino)-2-oxoethyl)-N-(3,4-dimethylphenyl)-1H-1,2,4-triazole-3-carboxamide], the IC50 against SUV39H2 is over 250 µM.

For `CC(C)(C)c1ccc(NC(=O)c2ncn(CC(=O)NCc3ccc4c(c3)OCO4)n2)cc1` [Compound 22, 1-(2-((benzo[d][1,3]dioxol-5-ylmethyl)amino)-2-oxoethyl)-N-(4-(tert-butyl)phenyl)-1H-1,2,4-triazole-3-carboxamide], in experiment [4], the “activity versus all MTs tested in the profiling assays” value is “inactive”.

Regarding `CC(C)(C)c1ccc(NC(=O)c2ncn(CC(=O)NCc3ccc4[nH]ncc4c3)n2)cc1` [Compound 23, 1-(2-(((1H-indazol-5-yl)methyl)amino)-2-oxoethyl)-N-(4-(tert-butyl)phenyl)-1H-1,2,4-triazole-3-carboxamide], at SUV39H2, the half-inhibitory concentration (IC50) was over 250 µM.

`CC(C)(C)c1ccc(NC(=O)c2ncn(CC(=O)NCc3ccc4c(N)nccc4c3)n2)cc1` [Compound 24, 1-(2-(((1-aminoisoquinolin-6-yl)methyl)amino)-2-oxoethyl)-N-(4-(tert-butyl)phenyl)-1H-1,2,4-triazole-3-carboxamide]: the IC50 against PRMT1 was over 250 µM; against PRMT3, 41.1 µM; against PRMT5 Alone, 227 µM; against PRMT6 it was over 250 µM; on PRMT5-MEP50 complex it was over 250 µM; at PRMT4, over 250 µM. This compound also displayed an IC50 on SUV39H2 of over 250 µM.

For `CC(C)(C)c1ccc(NC(=O)c2ncn(CC(=O)NCCn3ccc4c(N)ncnc43)n2)cc1` [Compound 25, 1-(2-((2-(4-amino-7H-pyrrolo[2,3-d]pyrimidin-7-yl)ethyl)amino)-2-oxoethyl)-N-(4-(tert-butyl)phenyl)-1H-1,2,4-triazole-3-carboxamide], the IC50 is over 250 µM on PRMT1; 149 µM against PRMT3; 187 µM against PRMT5 Alone; over 250 µM on PRMT6; over 250 µM at PRMT5-MEP50 complex; over 250 µM at PRMT4. This compound also came in with an IC50 on SUV39H2 of over 250 µM. Further, the “effect on the growth of E2A-HLF cells” value in the experiment with E2A-HLF cells is recorded as “without showing any effect on the growth”. The “cellular H3K79 methylation” value in the experiment on H3K79 methylation (day 6) was “dose-dependent inhibition”; with H3K79 methylation (day 9, 30 μM), “complete inhibition”; in the experiment with H3K79 methylation (day 9, 10 and 3 μM) it was “significant decrease”. Besides, the “cell differentiation, Wright-Giemsa stain” value in experiment [5] is “dose-dependent cell differentiation”. In addition, in experiment [6] (day 11 at 30 μM), the “cell growth inhibition of MLL-AF9 cells” value is listed as “complete cell growth inhibition”. In [6] (murine established leukemia cell lines), the “killing of MLL-AF9 cells versus E2A-HLF cells” value is “selectively killed MLL-AF9”. Besides, in [2] (day 6), the “H3K4me3 and H4K20me2” value is reported as “no significant changes”.

With `Nc1nccc2cc(CNC(=O)Cn3cnc(C(=O)NC4CCCCC4)n3)ccc12` [Compound 28, 1-(2-(((1-aminoisoquinolin-6-yl)methyl)amino)-2-oxoethyl)-N-cyclohexyl-1H-1,2,4-triazole-3-carboxamide], the half-inhibitory concentration (IC50) on PRMT1, against PRMT6, against PRMT5-MEP50 complex and against PRMT4 was over 250 µM in each case.

For `Nc1ncnc2c1ncn2[C@@H]1O[C@H](CSCC[C@H](N)C(=O)O)[C@@H](O)[C@H]1O` [SAH, S-adenosylhomocysteine, reference compound], at PRMT3, 1.44 µM corresponded to half-maximal inhibition (IC50).

One may read the IC50 as the concentration needed to halve the response being measured. Low values mean greater potency in that assay, high ones weaker potency in that assay.
